pIC50: −log10 of the molar value.
What was measured:
HeLa cells [1] = experiment: quantification of apoptotic morphology (pyknosis/karyorrhexis); format: cell-based, human; conditions: single-agent treatment, 48 h (1 40 μM; CHIR-124 500 nM)
Procedure: With this in mind, and considering the strong Chk1 activation in response to 1, HeLa cervical cancer cells, which are […][44], were exposed to a combination of 1 plus the Chk1 inhibitor CHIR-124[45] and the impact of co-treatment upon cell viability determined. A non-cytotoxic dose of 500 nM CHIR-124 was used and results were compared to single-agent treatment. […] Minimal enhancement of the anti-proliferative effect of 2 by CHIR-124 was observed (Fig. S15b), in agreement with 2 operating via a Chk1-independent mechanism.
Figure 5 Concurrent treatment of [Ru(dppz)2(PIP)]^2+ plus the Chk1 inhibitor CHIR-124 potentiates synergistic apoptosis in cancer cells. (a) Viability of HeLa (cervical cancer) or hSAEC1-KT (normal epithelial) cells after incubation with 1 in the absence or presence of Chk1 inhibitor CHIR-124 (500 nM) for 48 h constant exposure. (b) Morphological evidence for apoptosis (pyknosis/karyorrhexis, arrows) in HeLa cells treated with 40 μM 1 plus CHIR-124 for 48 h. Scale bars = 20 μm. (c) Quantification of apoptotic cells for experimental conditions as shown in (b). Equivalent results for 2 (40 μM, 48 h) included. Data mean of two independent experiments +/− SD. […] (f) Quantification of γH2AX foci from cells treated as in (e). […] Minimum of 150 cells counted per experiment. […]

[2] = tested on: primary human foreskin fibroblasts (HFF); experiment: MTT proliferation assay, HFF; format: cell-based; conditions: 24 h proliferation assay
Procedure: (§1) (LC3 = Microtubule-associated protein light chain 3) (Fig. 2b, bottom).
(§2) Cells were seeded in 96 well plates at 20,000 cells/well, allowed to proliferate for 24 h before treatment as described in the main text. 0.5 mg ml^−1 MTT (thiazolyl blue tetrazolium bromide) dissolved in serum-free media was added for 60 minutes and the formazan product eluted using acidified isopropanol. The absorbance at 540 nm was quantified by plate reader (reference wavelength 650 nm). The metabolic activity of the cell population was determined as a percentage of a negative (solvent) control.

HeLa cells [3] = experiment: cell-cycle analysis by PI flow cytometry; format: cell-based, human; conditions: cisplatin 10 μM, 24 h (Fig. 4c)
Procedure: Figure 4 [Ru(dppz)2(PIP)]^2+ induces Chk1 checkpoint kinase activation and G1-S cell-cycle arrest. […] See SI for densitometry. (c) Cell-cycle distributions of HeLa cells incubated with DMSO (0.2%), 1 or 2 at the stated concentrations and time. DNA content was quantified using propidium iodide (PI) and analysed by flow cytometry. […] Data mean of three independent experiments +/− SD. […] They are copied as bare numbers, left to right. / The gate numbers in panel c are very small, so 3, 5, 6, 8 and 9 cannot be told apart with certainty. All the values below are best readings. / DMSO: 0.86, 57.4, 22.5, 16.8 uncertain / 1 (40 μM, 3 h): 0.46, 72.7, 13.5, 8.77 uncertain / 1 (40 μM, 8 h): 1.69, 73.2, 15.3, 3.6 uncertain / 1 (40 μM, 24 h): 1.2, 72.9, 15.8, 6.47 uncertain. […] 32.4 is partly overlapped by the peak line.
Cells were washed with PBS and detached using Trypsin. After centrifugation at 1000 rpm for 5 min, cells were fixed in cold 70% ethanol for 30 mins, centrifuged and re-suspended in PBS. Samples were stained using 10 μg/ml propidium iodide (PI) and 200 μg/ml RNAase A for 30 mins before FACS analysis using a Biosciences LSRII Flow Cytometer. A minimum of 10,000 cells were counted for each sample and data were processed using FloJo software. […]

MCF7 breast cancer cells = experiment: MTT proliferation assay, MCF7; format: cell-based, human; conditions: 24 h proliferation assay
Procedure: as §1, §2

[4] = tested on: HeLa cervical cancer cells; experiment: MTT proliferation assay, HeLa; format: cell-based, human; conditions: 24 h proliferation assay
Procedure: as §1, §2

| Compound | morphological evidence of apoptosis (pyknosis/karyorrhexis) (HeLa cells [1]) [%] | pIC50 [2] | cells with sub-G1 DNA content (HeLa cells [3]) | pIC50 (MCF7 breast cancer cells) | pIC50 [4] | pIC50 ([2]; Homo sapiens, Fibroblast, 24 h) | pIC50 (MCF7 breast cancer cells; Homo sapiens, MCF7, 24 h) | pIC50 ([4]; Homo sapiens, HeLa, 24 h) |
| --- | --- | --- | --- | --- | --- | --- | --- | --- |
| O=c1[nH]c2ccc(Cl)cc2c(N[C@@H]2CN3CCC2CC3)c1-c1nc2ccccc2[nH]1 [CHIR-124, reference compound] | < 5 | – | – | – | – | – | – | – |
| N.N.[Cl][Pt][Cl] [Cisplatin, cis-diamminedichloroplatinum(II)] | – | < 4.00 | ~ 30% | 4.96 | 5.05 | – | – | – |
| O=C1c2c(O)ccc(O)c2C(=O)c2c(NCCNCCO)ccc(NCCNCCO)c21 [MX, mitoxantrone] | – | 5.38 | – | 5.44 | 5.52 | > 5.30 | > 5.30 | > 5.30 |
